How the values were obtained:
Pyrenophora teres = assay: Pyrenophora test (barley) / preventive; assay type: in vivo; details: 500 ppm of active ingredient, evaluated 7-9 days after inoculation
Procedure: Pyrenophora Test (Barley)/Preventive
(§1) To produce a suitable preparation of active compound, 1 part by weight of active compound is mixed with the stated amounts of solvent and emulsifier, and the concentrate is diluted with water to the desired concentration.
(§2) To test for preventive activity, young plants are sprayed with the preparation of active compound at the stated rate of application. One day after this treatment, the plants are inoculated with an aqueous spore suspension of Pyrenophora teres. The plants remain for 48 hours in an incubation cabinet at 22° C. and a relative atmospheric humidity of 100%. Then the plants are placed in a greenhouse at a temperature of approximately 20° C. and a relative atmospheric humidity of approximately 80%.
(§3) The test is evaluated 7-9 days after the inoculation. 0% means an efficacy which corresponds to that of the untreated control while an efficacy of 100% means that no disease is observed.

Sphaerotheca fuliginea = assay: Sphaerotheca test (cucumber) / preventive; assay type: in vivo; details: 500 ppm of active ingredient, evaluated 7 days after inoculation
Procedure: Sphaerotheca Test (Cucumber)/Preventive
as §1
To test for preventive activity, young plants are sprayed with the preparation of active compound at the stated rate of application. One day after this treatment, the plants are inoculated with an aqueous spore suspension of Sphaerotheca fuliginea. Then the plants are placed in a greenhouse at approximately 23° C. and a relative atmospheric humidity of approximately 70%.
(§4) The test is evaluated 7 days after the inoculation. 0% means an efficacy which corresponds to that of the untreated control, while an efficacy of 100% means that no disease is observed.

[1] = tested on: Blumeria graminis f.sp. hordei; assay: Blumeria test (barley) / preventive; assay type: in vivo; details: 500 ppm of active ingredient, evaluated 7 days after inoculation
Procedure: Blumeria Test (Barley)/Preventive
(§5) To produce a suitable preparation of active compound, 1 part by weight of active compound or active compound combination is mixed with the stated amounts of solvent and emulsifier, and the concentrate is diluted with water to the desired concentration.
(§6) To test for preventive activity, young plants are sprayed with the preparation of active compound or active compound combination at the stated rate of application.
After the spray coating has been dried, the plants are dusted with spores of Blumeria graminis f.sp. hordei.
The plants are placed in the greenhouse at a temperature of approximately 18° C. and a relative atmospheric humidity of approximately 80% to promote the development of mildew pustules.
as §4

Puccinia recondita = assay: Puccinia test (wheat) / preventive; assay type: in vivo; details: 500 ppm of active ingredient, evaluated 7-9 days after inoculation
Procedure: Puccinia Test (Wheat)/Preventive
as §1
as §2, with “Puccinia recondita.” for “Pyrenophora teres.”
as §3

[2] = log P by HPLC on reversed phase columns (EEC directive 79/831 Annex V.A8), method [b]; assay type: physicochemical
Procedure: Calibration was done with not branched alkan2-ones (with 3 to 16 carbon atoms) with known log P-values (measurement of log P values using retention times with linear interpolation between successive alkanones). lambda-maX-values were determined using UV-spectra from 200 nm to 400 nm and the peak values of the chromatographic signals.

Venturia inaequalis = assay: Venturia test (apples) / preventive; assay type: in vivo; details: 100 ppm of active ingredient, evaluated 10 days after inoculation
Procedure: Venturia Test (Apples)/Preventive
as §1
To test for preventive activity, young plants are sprayed with the preparation of active compound at the stated rate of application. After the spray coating has dried on, the plants are inoculated with an aqueous conidia suspension of the causal agent of apple scab (Venturia inaequalis) and then remain for 1 day in an incubation cabinet at approximately 20° C. and a relative atmospheric humidity of 100%.
The plants are then placed in a greenhouse at approximately 21° C. and a relative atmospheric humidity of approximately 90%.
The test is evaluated 10 days after the inoculation. 0% means an efficacy which corresponds to that of the untreated control, while an efficacy of 100% means that no disease is observed.

Septoria tritici = Septoria tritici test (wheat) / preventive; assay type: in vivo; details: 500 ppm of active ingredient, evaluated 21 days after inoculation
Procedure: Septoria Tritici-Test (Wheat)/Preventive
as §5, §6
After the spray coating has been dried, the plants are sprayed with a spore suspension of Septoria tritici. The plants remain for 48 hours in an incubation cabinet at approximately 20° C. and a relative atmospheric humidity of approximately 100% and afterwards for 60 hours at approximately 15° C. in a translucent incubation cabinet at a relative atmospheric humidity of approximately 100%.
The plants are placed in the greenhouse at a temperature of approximately 15° C. and a relative atmospheric humidity of approximately 80%.
The test is evaluated 21 days after the inoculation. 0% means an efficacy which corresponds to that of the untreated control, while an efficacy of 100% means that no disease is observed.

Alternaria solani = assay: Alternaria test (tomato) / preventive; assay type: in vivo; details: 500 ppm of active ingredient, evaluated 7 days after inoculation
Procedure: Alternaria Test (Tomato)/Preventive
as §1
To test for preventive activity, young plants are sprayed with the preparation of active compound at the stated rate of application. One day after this treatment, the plants are inoculated with an aqueous spore suspension of Alternaria solani. The plants remain for one day in an incubation cabinet at approximately 22° C. and a relative atmospheric humidity of 100%. Then the plants are placed in an incubation cabinet at approximately 20° C. and a relative atmospheric humidity of 96%.
The test is evaluated 7 days after the inoculation. 0% means an efficacy which corresponds to that of the untreated control while an efficacy of 100% means that no disease is observed.

- LogP[b] ([2]; HPLC, pH 2.7, 0.1% formic acid in water / acetonitrile gradient): LogP^[b] = 4.87
- chromatographic logP ([2]; reversed phase HPLC columns, pH 2.7, acid): 4.87
Compound: CC(C)C1C2CCC1C1C(NC(=O)c3c(C(F)F)nn(C)c3F)CCCC21 (stereo not drawn) [Example 1, 3-(difluoromethyl)-5-fluoro-N-(9-isopropyldecahydro-1,4-methanonaphthalen-5-yl)-1-methyl-1H-pyrazole-4-carboxamide]
- Eff. % (Pyrenophora teres): 100%
- Eff. % (Sphaerotheca fuliginea): 100%
- Eff. % [1]: 100%
- Eff. % (Puccinia recondita): 95%
- Eff. % (Venturia inaequalis): 100%
- Eff. % (Septoria tritici): 90%
- Eff. % (Alternaria solani): 95%

— patent US20130296383A1, “DECAHYDRO-1,4-METHANONAPHTHALEN CARBOXAMIDES” (BAYER INTELLECTUAL PROPERTY GMBH, priority 2010, published 2013)
